Experimental data as given in patent US20110064773A1, “PHARMACEUTICAL COMPOSITIONS COMPRISING A THYROID HORMON AND THEIR THERAPEUTIC USE” (UNIVERSITE JOSEPH FOURIER, priority 2007, published 2011).
Entries after “also recorded” stand apart in the source; their conditions may differ.

Assays:
Assay type in all cases: in vivo, rat
Wistar rats [1] = test: Indirect calorimetry (energy expenditure, respiratory quotient) of Wistar rats; details: for Energy expenditure and respiratory quotient (metabolic activity): 2.5 μg/100 g continuous, 21 days; for Energy expenditure (EE, metabolism): 25 μg/100 g BW
Source text: Energy expenditure as well as the nature of substrate oxidized (carbohydrates or lipids) were investigated by indirect calorimetry. This principle is based on the determinations of CO2 release (VCO2) and O2 consumption (VO2) by each animal. It assumes that O2 is entirely involved in substrate oxidation in the respiratory chain (leading to water production) while CO2 release is related to substrate decarboxylation (in the Krebs' cycle). These measurements allow assessing energy expenditure (EE) and respiratory quotient ([…], RQ). EE represent the absolute energy dissipation during rest and activity. RQ is a relative measurement indicating the ratio of carbohydrate versus lipid involved in oxidative pathway. A ratio of 1.0 indicates exclusive carbohydrate oxidation while a ratio of 0.7 indicates exclusive lipid oxidation. Each value between these two extreme values indicates the relative proportion of each substrate (of note protein oxidation was not evaluated). As an example, RQ approaches 0.7 during fasting, indicating lipid oxidation, conversely after feeding RQ increases close to 1 indicating carbohydrate oxidation resulting from food intake and blood insulin rise. Likewise, animals fed high-carbohydrate diets have higher RQs than those fed high-fat diets.
The indirect calorimetry system (Panlab, Barcelona, Spain) consists of cages, pumps, flow controllers, valves, and analyzers. It is computer-controlled in order to sequentially measure O2 and CO2 concentrations as well as air flow in four separate cages allowing four simultaneous determinations. Rats are isolated in one of the four metabolic chambers, and room air is used as a reference to monitor ambient O2 and CO2 concentrations periodically.
At predefined intervals, the computer sends a signal to store differential CO2 and O2 concentrations, flow rate, allowing computing VCO2, VO2, RQ, and EE (Weir equation) with data acquisition hardware (Metabolism, Panlab, Barcelona, Spain).

muscle mitochondria = test: Rate of muscle mitochondrial oxygen consumption (JO2) of treated Wistar rats; details: 250 μg/kg BW/day, vs placebo
Experimental: The major part of the liver and the red part of each quadriceps were rinsed, and chopped into isolation medium (250 mM sucrose, 20 mM Tris-HCl and 1 mM EGTA-Tris, pH 7.4). Nuclei and cell debris were removed by centrifugation at 800 g for 10 min. Mitochondria were then isolated from the supernatant by spinning twice at 8,000 g for 10 minutes. The mitochondrial pellet was resuspended in 0.5 ml of isolation buffer and kept on ice. Mitochondrial protein was measured by the bicinchoninic acid method (Pierce, Rockford, Ill.). The final mitochondrial suspensions were maintained on ice and were used for measurements of oxygen consumption rate.
The rate of mitochondrial oxygen consumption (JO2) was measured at 30° C. in an incubation chamber with a Clark-type O2 electrode filled with 2 ml of incubation medium (125 mM KCl, 10 mM Pi-Tris, 20 mM Tris-HCl, 0.1 mM EGTA, pH 7.2). All measurements were performed using mitochondria (1.0 or 0.2 mg mitochondrial protein/ml for liver and skeletal muscle) incubated either with various substrates: glutamate/malate (5 mM/2.5 mM) and succinate (5 mM), alone or in combination, palmitoyl carnitine (55 μM) and octanoyl carnitine (100 μM). For each substrate, JO2 was recorded in the presence of the substrate alone (State 2) and following the addition of 1 mM ADP (state 3). Oligomycin (1.25 μg/mg protein) was added to the mitochondrial suspension to determine the non-phosphorylating respiratory rate (state 4). The incubation medium was constantly stirred with a built-in electromagnetic stirrer and bar flea. The efficiency of the mitochondrial oxidative phosphorylation was assessed by the state 3/state 4 ratio which measures the degree of control imposed on oxidation by phosphorylation (respiratory control ratio, RCR).

[2] = Blood rT3 dosage over 24 hours after administration; details: Wistar rats
Experimental: Blood rT3 dosage. The rT3 concentration is measured for 24 hours in Wistar rats treated with a high dosage of rT3 by intra-peritoneal injection (IP, square), oral ingestion (per os, triangle) or subcutaneous injection (sc, star). Basal rT3 level is measured in animal treated with placebo (lozenge).
Wistar rats were treated with rT3 hormone by a daily intraperitoneal injection (IP) (25 μg/100 g BW), a daily sub-cutaneous injection (SC) (25 μg/100 g BW), or a per os administration included in the rat food (25 μg/100 g BW). The continuous and constant administration was performed by using a pellet (25 μg/100 g BW).

ZDF rats = test: Body weight and food intake of ZDF rats; details: 2.5 μg/100 g BW/day, 21 days
Experimental: Adult male rat bred in the animal room facilities of Laboratory of Fundamental and Applied Bioenergetics (Wistar strain) or purchased from Charles-River Laboratories, Domaine des oncins, L'ARBRESLE France [(genetically obese normoglycemic (Zucker or Fa/Fa) or diabetic (ZDF)] were caged individually in stainless steel hanging cages and maintained in a 22° C., 50±10% relative humidity and 12 h:12 h light:dark environment. All animals were fed ad libitum with a standard rat chow (Safe A04, Villemoisson, France) and tap water. Body mass and food intake were recorded twice/thrice a week and fresh food was provided at the same time to ensure minimal disturbance to the animals' food behavior.
Then ZDF rats were treated with low doses of rT3 for 21 days (2.5 μg/100 g BW/day) and the glycaemia, insulinaemia were measured after 8, 16 and 21 days.

Wistar rats [3] = test: Oral glucose tolerance test (OGTT) and pancreas mass in non-diabetic Wistar rats; details: 2.5 μg/100 g BW, vs placebo
Experimental: Wistar rats are non-diabetic, non-obese without insulin-resistance, however like in humans, they tend to get slightly obese and insulin resistant with age. However this is supposed to be “physiological”.
The glucose resistance of these animals was tested by an oral glucose tolerance test (OGTT). Animals were fed with 2 g/kg BW of glucose and the Glucose concentration and Insulin concentration in blood were measured.

[4] = 25 μg/100 g BW pellet, vs placebo

SMILES: N[C@@H](Cc1ccc(Oc2cc(I)c(O)c(I)c2)c(I)c1)C(=O)O [rT3, 3′,5′,3-triiodothyronine]
- Energy expenditure and respiratory quotient (metabolic activity) (Wistar rats [1]; intra-peritoneal pump): increase of the metabolic activity
- Energy expenditure and respiratory quotient (metabolic activity) (Wistar rats [1]; sub-cutaneous pump): increase of the metabolic activity
- Respiratory quotient (RQ) during the day (diurnal period) (Wistar rats [1]; [4]): almost identical to placebo
- Respiratory quotient (RQ) during the night (Wistar rats [1]; [4]): higher
- Energy expenditure (EE, metabolism) (Wistar rats [1]; daily intra-peritoneal injection): do no modify the metabolism
- Energy expenditure (EE, metabolism) (Wistar rats [1]; daily per os): do no modify the metabolism
- Energy expenditure (EE, metabolism) (Wistar rats [1]; daily sub-cutaneous injection): do no modify the metabolism
- Energy expenditure (EE, metabolic expenses) (Wistar rats [1]; 25 μg/100 g BW/day, continuous subcutaneous pellet, 24 h calorimetry): enhanced metabolic expanses
- Respiratory quotient (RQ) (Wistar rats [1]; 25 μg/100 g BW/day, continuous subcutaneous pellet, after 900 min): significant difference from the placebo treated animals
- Energy expenditure (EE) (Wistar rats [1]; high dose 25 μg/100 g BW): significantly enhance
- Respiratory quotient (RQ) (Wistar rats [1]; high dose 25 μg/100 g BW, vs placebo): increase
- Respiratory quotient (RQ) (Wistar rats [1]; low dose 2.5 μg/100 g BW, vs placebo): increase
- Respiratory quotient (RQ) (Wistar rats [1]; ultra low dose 0.25 μg/100 g BW, vs placebo): decrease
- Muscle mitochondrial respiration, non-phosphorylating (state 4) (muscle mitochondria): failed to substantially affect
- Muscle mitochondrial respiration, phosphorylating (state 3) (muscle mitochondria): failed to substantially affect
- Circulating rT3 (degradation) ([2]; high dosage, intra-peritoneal injection): rapidly degraded
- Circulating rT3 compared to the injected dose ([2]; intra-peritoneal injection, after 5 hours): five fold decreased
- Circulating rT3 concentration in blood ([2]; per os administration): never allows to obtain in blood a concentration of rT3 similar with the concentration observed after intra-peritoneal injection
- Circulating rT3 concentration in blood ([2]; sub-cutaneous injection): remains substantially the same as the injected concentration
- Circulating rT3 (degradation) ([2]; sub-cutaneous injection, after 24 hours): quasi completely degraded
- Appetite (food intake) (ZDF rats): not associated with a loose of appetite
- Animal mass (body weight) (ZDF rats; vs placebo): slimmer; also recorded: reduced
- AUC of the glucose concentration after OGTT (Wistar rats [3]; 2 g/kg glucose, 3 hours): slightly reduced, however not significantly
- AUC of the insulin concentration after OGTT (Wistar rats [3]; 2 g/kg glucose, 3 hours): significantly lower
- Pancreas mass (Wistar rats [3]): moderate, albeit significant, increase
